From PMC5762338, “A novel orally available Syk/Src/Jak2 inhibitor, SKLB-850, showed potent anti-tumor activities in B cell lymphoma (BCL) models” (Oncotarget, 2017)

Legend:
[1] = test system: B-cell lymphoma samples from BCL patients; assay: Apoptosis of B-cell lymphoma samples from BCL patients, FCM; format: cell-based, Human; details: BCL patient samples, 24 hours, concentration not given
Description: (§1) The ability of inducing apoptosis of SKLB-850 in tumor tissues was examined by TUNEL. […] We then examined apoptotic tumor cells in B-cell lymphoma samples from BCL patients after SKLB-850 treatment by FCM. As shown in Figure 6C and 6F, SKLB-850 induced cell apoptosis (14.10 ± 4.04%), and R788 had the same effect but relatively weak (7.60 ± 0.52%). To better understand the mechanism of antitumor activities in vivo, Ki67 and CD20 in mouse tumor tissues were detected by immunohischemistry; Ki67 was a marker of proliferation in the diagnosis of tumors and CD20 was highly expressed in B cell lymphomas.
Figure 6 SKLB-850 inhibited tumor growth by inducing apoptosis of tumor tissues from the Ramos model and BCL samples from patients (A and D) TUNEL immunofluorescent staining of tumor tissues from the Ramos model (n-6 mice per group). (B and E) Immunohistochemical staining analyses of Ki67 and CD20 in tumor tissues from the Ramos model. (C and F) Apoptosis of tumor cells from the BCL patients induced by SKLB-850. Tumor tissues from BCL patients were treated with a series of concentrations of SKLB-850 or R788, and stained with AnnexinV-FITC and propidium iodide, then analyzed with a flow cytometer. […]
Human lymph nodes were collected aseptically from B-cell lymphoma patients (n = 4 for both groups, Supplementary Table 1). […] Cell apoptosis was analyzed with a flow cytometer (BD FACS Calibur, BD, USA).

Ramos tumors = assay: In situ TUNEL of tumor tissues from the Ramos model; format: in vivo, NOD/SCID mice
Description: as §1
Cell apoptosis in Ramos tumors was determined by a TUNEL assay following the manufacturer’s instructions (Promega). The number of TUNEL-positive cells was quantified by fluorescence microscopy and the apoptotic index in 6 random fields per group was counted.

HBL-1 xenograft = HBL-1 xenograft mouse model; format: in vivo, NOD/SCID mice; details: HBL-1 model
Procedure: (§2) The in vivo anti-BCL effects of SKLB-850 were investigated in the Ramos and HBL xenograft mouse models with R788 being taken as a positive control. The animals were treated orally once daily for 21 days (Ramos model) or 36 days (HBL-1 model).
(§3) All animal studies were conducted according to the guidelines of the Animal Care and Use Committee of Sichuan University (Permit Number: 20121205, Chengdu, Sichuan, China). Ramos and HBL-1 tumor cells were established by subcutaneously injecting 1×10^7 cells (100μL) into the hind flank region of 7–8 week old female NOD/SCID mice (ICR, NOD/SCID). When tumors reached a volume of ∼200 mm^3, mice were randomly divided into different groups (6 per group), and SKLB-850 (40 mg/kg, 20mg/kg) or vehicle (5% DMSO, 25% PEG400, and 70% waters) were given once daily by oral gavage. Tumor growth and body weight were measured every three days or every day during the treatment. Tumor volumes were calculated using the formula as follow: tumor volume (mm^3) = 0.5× length (mm) × width (mm) ^2. Studies were typically terminated when tumors in vehicle treated animals reached an average size of 2,000 mm^3. Solid tumors were removed and processed for immunohistochemical analysis and terminal deoxynucleotidyl transferase-mediated dUTP nick end labeling (TUNEL) assay.

[2] = test system: Syk/ERK, Src/FAK and JAK2/STAT3 signaling pathways in Ramos cell; assay: Western blot of Syk/ERK, Src/FAK and JAK2/STAT3 signaling; format: cell-based, Human; design: Syk, Src, JAK2 phosphorylation (in words): dose or concentration left out as unconfirmed; details: 24 hours
Procedure: To understand the mechanism of antitumor activities in vivo, pivotal protein activities of Syk/ERK, Src/FAK and JAK2/STAT3 signaling pathways were detected by Western blot analysis. […] Immunohistochemistry assays were performed using tumor tissues isolated from the Ramos tumor model at the end of treatment.
Figure 7 Western blot and histochemical analyses of tumor tissues from the Ramos model (A) SKLB-850 inhibited Syk/ERK, Src/FAK and JAK2/STAT3 signaling pathways. The Ramos cells were incubated for 24 hours in medium containing vehicle, SKLB-850, or R788, and then lysed for western blot assay. (B) H&E staining and immunohistochemical staining of NF-κB, p-Src, p-STAT3 and p-Syk in tumor tissues isolated from vehicle, R788 or SKLB-850 treated groups. SKBL-850 inhibited p-JAK2, p-FAK, p-Src, p-ERK and p-Syk expression in RAMOS cells.
For Ramos cell immunoplot studies, cancer cells were incubated with vehicle, R788, or SKLB-850 for 24 hours, and then lysed in RIPA buffer (Beyotime, China) containing Roche protease inhibitor cocktail, and the protein concentrations were determined by the Bradford method. […]

Ramos xenograft = Ramos xenograft mouse model; format: in vivo, NOD/SCID mice
Procedure: as §2, §3

[3] = positive control, orally once daily

Row | SMILES | cell apoptosis [1] | apoptosis in tumor tissues (TUNEL) (Ramos tumors) | tumor inhibition rate (HBL-1 xenograft; 20 mg/kg orally once daily for 36 days) | Syk, Src, JAK2 phosphorylation (in words) [2] | phosphorylation levels of ERK, FAK and Stat3 (in words) ([2]; concentrations between 0.01μMl and 1μM/ml) | tumor inhibition rate (Ramos xenograft; 20 mg/kg orally once daily for 21 days) | tumor inhibition rate (Ramos xenograft; 40 mg/kg orally once daily for 21 days) | anti-tumor effect (in words) (HBL-1 xenograft; [3]) | anti-tumor effect (in words) (Ramos xenograft; [3])
1 | CN1CCN(c2ccc(Nc3ncc(F)c(Nc4ccc(Cl)cc4C(N)=O)n3)cc2)CC1 [SKLB-850, 5-chloro-2-((5-fluoro-2-((4-(4-methylpiperazin-1-yl)phenyl)amino)pyrimidin-4-yl)amino) benzamide] | 14.10 ± 4.04% | 406.00 ± 20.70 % of control | 80.84% ±4.09% | effectively inhibited | down-regulated | 73.65% ± 21.22% | 78.82% ± 9.35% |  | 
2 | COc1cc(Nc2ncc(F)c(Nc3ccc4c(n3)N(COP(=O)(O)O)C(=O)C(C)(C)O4)n2)cc(OC)c1OC [R788, reference compound] | 7.60 ± 0.52% | 242.20 ± 20.00 % of control |  |  |  |  |  | some anti-tumor effect | some anti-tumor effect
